From ChEMBL document CHEMBL3044884, “Effect of 6-methoxybenzoxazolin-2-one (MBOA) on the reproduction rate of the grain aphid (Sitobion avenae F.)” (2006)

Legend:
Assay type in all cases: functional
Sitobion avenae [1] = assay: Insecticidal activity against 1 to 3 day old Sitobion avenae apterous virginoparous nymphs raised on artificial diet exposed to compound at 8 mM assessed as intrinsic reproduction rate of increase measured after 4 weeks (reference value: 0.00162 intrinsic reproduction rate of increase)
Sitobion avenae [2] = assay: Insecticidal activity against 1 to 3 day old Sitobion avenae apterous virginoparous nymphs raised on artificial diet exposed to compound at 0.5 mM assessed as intrinsic reproduction rate of increase measured after 4 weeks (reference value: 0.00162 intrinsic reproduction rate of increase)
Sitobion avenae [3] = assay: Insecticidal activity against 1 to 3 day old Sitobion avenae apterous virginoparous nymphs raised on artificial diet exposed to compound at 0.3 mM assessed as intrinsic reproduction rate of increase measured after 4 weeks (reference value: 0.00162 intrinsic reproduction rate of increase)
Sitobion avenae [4] = assay: Insecticidal activity against 1 to 3 day old Sitobion avenae apterous virginoparous nymphs raised on artificial diet exposed to compound at 0.1 mM assessed as intrinsic reproduction rate of increase measured after 4 weeks (reference value: 0.00162 intrinsic reproduction rate of increase)
Sitobion avenae [5] = assay: Insecticidal activity against 1 to 3 day old Sitobion avenae apterous virginoparous nymphs raised on artificial diet exposed to compound at 0.2 mM assessed as intrinsic reproduction rate of increase measured after 4 weeks (reference value: 0.00162 intrinsic reproduction rate of increase)
Sitobion avenae [6] = assay: Insecticidal activity against 1 to 3 day old Sitobion avenae apterous virginoparous nymphs raised on artificial diet exposed to compound at 0.05 mM assessed as intrinsic reproduction rate of increase measured after 4 weeks (reference value: 0.00162 intrinsic reproduction rate of increase)

**Q.** What does the source list for `COc1ccc2[nH]c(=O)oc2c1` [COIXOL]?
**A.** Activity (Sitobion avenae [1]): 0; Activity (Sitobion avenae [2]): 0.00048; Activity (Sitobion avenae [3]): 0.00075; Activity (Sitobion avenae [4]): 0.00296; Activity (Sitobion avenae [5]): 0.00139; Activity (Sitobion avenae [6]): 0.0015
